The target of one test is P2X7 receptor (hP2X7) (Homo sapiens (Human), UniProt Q99572). Kind of test: Screen Quest Fluo-8 No Wash Calcium Assay (Bz-ATP-induced Ca2+ influx, FLIPR TETRA). It is filed as cell-based. The note with it: HEK-293 cells stably transfected with P2X7 receptor, Fluo-8 calcium, Low Divalent Cation Assay Buffer. Summed up: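 HEK-293 cells stably transfected with P2X7, pre-loaded with Fluo-8 NW dye for 1 h at RT, then test compounds injected. Ca2+ influx on Bz-ATP stimulation followed as kinetic fluorescence (ex 488 nm, em 515-575 nm) over five minutes.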
Chain of P2X7 receptor (hP2X7) (Q99572 whole entry): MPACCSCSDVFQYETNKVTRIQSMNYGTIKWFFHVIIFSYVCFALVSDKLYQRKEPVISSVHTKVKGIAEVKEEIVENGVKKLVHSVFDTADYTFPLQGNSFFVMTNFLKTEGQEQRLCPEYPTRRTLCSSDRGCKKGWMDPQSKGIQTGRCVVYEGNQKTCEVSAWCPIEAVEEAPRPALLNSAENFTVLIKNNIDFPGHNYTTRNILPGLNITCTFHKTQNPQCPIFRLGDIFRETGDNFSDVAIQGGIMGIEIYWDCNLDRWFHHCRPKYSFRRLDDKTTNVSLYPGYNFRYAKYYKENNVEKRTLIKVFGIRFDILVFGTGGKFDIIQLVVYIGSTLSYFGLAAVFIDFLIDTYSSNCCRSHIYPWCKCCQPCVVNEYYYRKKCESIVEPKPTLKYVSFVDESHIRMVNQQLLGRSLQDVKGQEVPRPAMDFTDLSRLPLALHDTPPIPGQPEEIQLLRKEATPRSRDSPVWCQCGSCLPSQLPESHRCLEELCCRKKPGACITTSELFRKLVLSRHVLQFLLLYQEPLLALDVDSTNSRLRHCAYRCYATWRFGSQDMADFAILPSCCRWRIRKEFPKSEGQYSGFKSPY

The target in another test is P2X7 receptor (Homo sapiens (Human), UniProt Q99572). Put plainly: YO-PRO-1 Uptake Assay (large pore form, Bz-ATP stimulated). It is filed as cell-based. The note with it: HEK-293 cells stably transfected with P2X7 receptor; Bz-ATP EC80 (30 μM); 5 μM YO-PRO-1. The source says:
YO-PRO®-1 is a fluorescent DNA-binding dye with a MW of 374 Da (Molecular Probes®, cat. Y3603). This method is based upon the presumed ability of YO-PRO®-1 to enter through the dilated or “large pore form” of P2X7 receptor and to bind to intracellular DNA whereupon it increases many fold its fluorescence intensity. The dye has an absorption spectrum compatible with excitation at 488 nm by argon laser sources and its emission wavelength is in the range of 515-575 nm. The aim of this assay was to validate the interaction of antagonists with P2X7 receptor using an alternative readout to Ca^2+-sensitive fluorescent dyes.
HEK-293 cells stably transfected with P2X7 receptor were seeded overnight in growth medium at 20,000 cells/well in 384-well plate. 24 hours later, the medium was removed, the cells were washed with Low Divalent Cation Assay Buffer (0.3 mM Ca2+ and 0 mM Mg2+) and then pre-loaded with 20 μL/w of 5 μM YO-PRO®-1 dye. […] fluorescence measurement immediately started. Then, 10 μL/w of test compounds and reference antagonist A438079 at 3×-concentration were injected with the […] and the kinetic response over a period of five minutes was monitored. A second injection of 10 μL/w of 3× Bz-ATP EC80 (30 μM) was performed with the […] and the signal of the emitted fluorescence was recorded for additional 60 minutes. All the experiment was carried out with a Low Divalent Cation Assay Buffer (0.3 mM Ca^2+ and 0 mM Mg^2+).
The effect of the test compounds was measured as percent inhibition vs the reference antagonist and IC50 values were calculated accordingly.

We go through 28 compounds from patent US9718812B2, “Substituted thiazole or oxazole P2X7 receptor antagonists” (Axxam S.P.A., priority 2014, dated 2017).

For orientation: IC50 means the concentration at which inhibition is half-maximal.

SMILES strings stand for the structures.

Chain of P2X7 receptor (Q99572 whole entry): as above

`Cc1cccc(C)c1C(=O)NCC(c1scnc1C)N1CCC(F)(F)CC1` (centres unmarked) [Compound 32, N-[2-(4,4-difluoropiperidin-1-yl)-2-(4-methyl-1,3-thiazol-5-yl)ethyl]-2,6-dimethylbenzamide]: the values for the IC50 on P2X7 receptor (hP2X7) and against P2X7 receptor were 55 nM and 44 nM, respectively.
Take `O=C(NCC(c1cnc(C2CC2)s1)N1CCC(F)(F)CC1)c1cc(-c2ncc(F)cn2)ccc1Cl` (centres unmarked) [Compound 87]: the IC50 on P2X7 receptor (hP2X7) worked out at 179 nM; against P2X7 receptor, 126 nM.
Turning to `O=C(NCC(c1cnc(C2CCC2)s1)N1CCC(F)(F)CC1)c1cccc2ncccc12` (centres unmarked) [Compound 105, N-[2-(2-cyclobutyl-1,3-thiazol-5-yl)-2-(4,4-difluoropiperidin-1-yl)ethyl]quinoline-5-carboxamide], the IC50 at P2X7 receptor (hP2X7) was 292 nM; against P2X7 receptor, 135 nM.
`O=C(NCC(c1cncs1)N1CCC(Oc2ccccc2)CC1)c1c(F)cccc1Cl` (centres unmarked) [Compound 27, 2-chloro-6-fluoro-N-[2-(4-phenoxypiperidin-1-yl)-2-(1,3-thiazol-5-yl)ethyl]benzamide]: the IC50 at P2X7 receptor (hP2X7) stood at 63 nM; at P2X7 receptor, 52 nM.
As for `CCc1ncc(C(CNC(=O)c2c(F)cccc2Cl)N2CCC(F)(F)CC2)s1` (centres unmarked) [Compound 85, 2-chloro-N-[2-(4,4-difluoropiperidin-1-yl)-2-(2-ethyl-1,3-thiazol-5-yl)ethyl]-6-fluorobenzamide], the IC50 on P2X7 receptor (hP2X7) stood at 62 nM; against P2X7 receptor, 48 nM.
Consider `Cc1ncsc1C(CNC(=O)c1cccc2ncccc12)N1CCC(F)(F)CC1` (centres unmarked) [Compound 33, N-[2-(4,4-difluoropiperidin-1-yl)-2-(4-methyl-1,3-thiazol-5-yl)ethyl]quinoline-5-carboxamide], for which the IC50 was 158 nM on P2X7 receptor (hP2X7) and 176 nM against P2X7 receptor.
Turning to `Nc1ccc(Cl)c(C(=O)NCC(c2cncs2)N2CCC(F)(F)CC2)c1` (centres unmarked) [Compound 16, 5-amino-2-chloro-N-[2-(4,4-difluoropiperidin-1-yl)-2-(1,3-thiazol-5-yl)ethyl]benzamide], the half-inhibitory concentration (IC50) stood at 32 nM on P2X7 receptor (hP2X7) and 98 nM against P2X7 receptor.
The matching figures for `Cc1ncc(C(CNC(=O)c2c(F)cccc2Cl)N2CCC(OCc3ccccc3)CC2)s1` (centres unmarked) [Compound 62, N-{2-[4-(benzyloxy)piperidin-1-yl]-2-(2-methyl-1,3-thiazol-5-yl)ethyl}-2-chloro-6-fluorobenzamide]: 576 nM and 1110 nM.
The matching figures for `Cc1cccc(Cl)c1C(=O)NCC(c1scnc1C)N1CCOC(c2ccc(F)cc2F)C1` (centres unmarked) [Compound 101, 2-chloro-N-{2-[2-(2,4-difluorophenyl)morpholin-4-yl]-2-(4-methyl-1,3-thiazol-5-yl)ethyl}-6-methylbenzamide]: 114 nM and 42 nM.
As for `CCCc1ncc(C(CNC(=O)c2cccc3ncccc23)N2CCC(F)(F)CC2)s1` (centres unmarked) [Compound 108, N-[2-(4,4-difluoropiperidin-1-yl)-2-(2-propyl-1,3-thiazol-5-yl)ethyl]quinoline-5-carboxamide], the IC50 on P2X7 receptor (hP2X7) was 199 nM; on P2X7 receptor, 77 nM.
Take `Cc1cccc(Cl)c1C(=O)NCC(c1cncs1)N1CCC(OCc2ccccc2)CC1` (centres unmarked) [Compound 24, N-{2-[4-(benzyloxy)piperidin-1-yl]-2-(1,3-thiazol-5-yl)ethyl}-2-chloro-6-methylbenzamide]: the IC50 at P2X7 receptor (hP2X7) came to 111 nM; against P2X7 receptor it was 44 nM.
On to `Cc1ncsc1C(CNC(=O)c1cccc2ncccc12)N1CCOC(c2ccc(F)cc2F)C1` (centres unmarked) [Compound 99, N-{2-[2-(2,4-difluorophenyl)morpholin-4-yl]-2-(4-methyl-1,3-thiazol-5-yl)ethyl}quinoline-5-carboxamide], for which the IC50 at P2X7 receptor (hP2X7) was determined as 32 nM; at P2X7 receptor, 79 nM.
Regarding `O=C(NCC(c1cnc(C2CCC(F)(F)CC2)s1)N1CCOCC1)c1c(F)cccc1Cl` (centres unmarked) [Compound 116, 2-chloro-N-{2-[2-(4,4-difluorocyclohexyl)-1,3-thiazol-5-yl]-2-(morpholin-4-yl)ethyl}-6-fluorobenzamide], the IC50 was 60 nM on P2X7 receptor (hP2X7) and 41 nM at P2X7 receptor.
On to `Cc1cccc(C)c1C(=O)NCC(c1cnco1)N1CCc2ccccc2C1` (centres unmarked) [Compound 49, 2,6-dimethyl-N-[2-(1,3-oxazol-5-yl)-2-(1,2,3,4-tetrahydroisoquinolin-2-yl)ethyl]benzamide], for which the values for the IC50 at P2X7 receptor (hP2X7) and at P2X7 receptor were 104 nM and 945 nM, respectively.
Consider `Cc1nc(C)c(C(CNC(=O)c2cc(-c3ncc(F)cn3)ccc2Cl)N2CCC(F)(F)CC2)o1` (centres unmarked) [Compound 58, 2-chloro-N-[2-(4,4-difluoropiperidin-1-yl)-2-(2,4-dimethyl-1,3-oxazol-5-yl)ethyl]-5-(5-fluoropyrimidin-2-yl)benzamide], for which the IC50 at P2X7 receptor (hP2X7) came to 1120 nM; against P2X7 receptor, 2970 nM.
Consider `Cc1cccc(Cl)c1C(=O)NCC(c1scnc1C)N1CCOC(c2ccc(F)cc2F)C1` (centres unmarked) [Compound 100, 2-chloro-N-{2-[2-(2,4-difluorophenyl)morpholin-4-yl]-2-(4-methyl-1,3-thiazol-5-yl)ethyl}-6-methylbenzamide], for which the IC50 is 68 nM on P2X7 receptor (hP2X7) and 72 nM against P2X7 receptor.
For `O=C(NCC(c1cnc(CO)s1)N1CCC(F)(F)CC1)c1cc(-c2ncc(F)cn2)ccc1Cl` (centres unmarked) [Compound 112], the IC50 was determined as 119 nM on P2X7 receptor (hP2X7) and 36 nM against P2X7 receptor.
The matching figures for `Cc1ncsc1C(CNC(=O)c1cc(-c2ncc(F)cn2)ccc1Cl)N1CCOCC1` (centres unmarked) [Compound 37, 2-chloro-5-(5-fluoropyrimidin-2-yl)-N-[2-(4-methyl-1,3-thiazol-5-yl)-2-(morpholin-4-yl)ethyl]benzamide]: 106 nM and 90 nM.
In the case of `Cc1ncc(C(CNC(=O)c2c(C)cccc2Cl)N2CCc3ccccc3C2)s1` (centres unmarked) [Compound 41, 2-chloro-6-methyl-N-[2-(2-methyl-1,3-thiazol-5-yl)-2-(1,2,3,4-tetrahydroisoquinolin-2-yl)ethyl]benzamide], the IC50 at P2X7 receptor (hP2X7) turned out to be 853 nM; against P2X7 receptor, 996 nM.
The matching figures for `O=C(NCC(c1cnco1)N1CCC(OCc2ccccc2)CC1)c1c(F)cccc1Cl` (centres unmarked) [Compound 63, N-{2-[4-(benzyloxy)piperidin-1-yl]-2-(1,3-oxazol-5-yl)ethyl}-2-chloro-6-fluorobenzamide]: 69 nM and 158 nM.
As for `Cc1cccc(C)c1C(=O)NCC(c1cncs1)N1CCOCC1` (centres unmarked) [Compound 11, 2,6-dimethyl-N-[2-(morpholin-4-yl)-2-(1,3-thiazol-5-yl)ethyl]benzamide], the IC50 came out at 81 nM at P2X7 receptor (hP2X7) and 220 nM on P2X7 receptor.
As to `Cc1cccc(Cl)c1C(=O)NCC(c1cncs1)N1CCC(F)(F)CC1` (centres unmarked) [Compound 15, 2-chloro-N-[2-(4,4-difluoropiperidin-1-yl)-2-(1,3-thiazol-5-yl)ethyl]-6-methylbenzamide], the IC50 at P2X7 receptor (hP2X7) is 8 nM; against P2X7 receptor it was 38 nM.
Regarding `O=C(NCC(c1cscn1)N1CCCOCC1)c1c(F)cccc1Cl` (centres unmarked) [Compound 7], the IC50 is 840 nM on P2X7 receptor (hP2X7) and 1690 nM at P2X7 receptor.
For the compound `Cc1cccc(C)c1C(=O)NCC(c1cncs1)N1CCC(Oc2ccccc2)CC1` (centres unmarked) [Compound 26, 2,6-dimethyl-N-[2-(4-phenoxypiperidin-1-yl)-2-(1,3-thiazol-5-yl)ethyl]benzamide], the IC50 was found to be 119 nM on P2X7 receptor (hP2X7) and 44 nM at P2X7 receptor.
For the compound `O=C(NCC(c1cncs1)N1CCC(F)(F)CC1)c1cc(-c2ncc(F)cn2)ccc1Cl` (centres unmarked) [Compound 20, 2-chloro-N-[2-(4,4-difluoropiperidin-1-yl)-2-(1,3-thiazol-5-yl)ethyl]-5-(5-fluoropyrimidin-2-yl)-benzamide], the IC50 came to 34 nM at P2X7 receptor (hP2X7) and 30 nM on P2X7 receptor.
With `COc1cccc(C(=O)NCC(c2cncs2)N2CCC(F)(F)CC2)c1OC` (centres unmarked) [Compound 21, N-[2-(4,4-difluoropiperidin-1-yl)-2-(1,3-thiazol-5-yl)ethyl]-2,3-dimethoxybenzamide], the results for the IC50 on P2X7 receptor (hP2X7) and against P2X7 receptor were 31 nM and 129 nM, respectively.
The matching figures for `Nc1ccc(Cl)c(C(=O)NCC(c2cncs2)N2CCOCC2)c1` (centres unmarked) [Compound 12, 5-amino-2-chloro-N-[2-(morpholin-4-yl)-2-(1,3-thiazol-5-yl)ethyl]benzamide-]: 143 nM and 846 nM.
In the case of `Cc1ncoc1C(CNC(=O)c1cc(-c2ncc(F)cn2)ccc1Cl)N1CCOCC1` (centres unmarked) [Compound 54, 2-chloro-5-(5-fluoropyrimidin-2-yl)-N-[2-(4-methyl-1,3-oxazol-5-yl)-2-(morpholin-4-yl)ethyl]benzamide], the values for the IC50 on P2X7 receptor (hP2X7) and against P2X7 receptor were 114 nM and 279 nM, respectively.
